According to ChEMBL document CHEMBL3885881, “DrugMatrix”:

Species: Rattus norvegicus
Test: DrugMatrix - Regimen: Daily Repeat
Type: toxicity, organism-based, Sprague-Dawley
Set-up: regimen Daily Repeat, gender Male, age 6-8 weeks
Settings: in vivo, po, 0 mg/kg, route oral GAVAGE, dose level Control, […]; for ABSOLUTE BASOPHIL / ABSOLUTE EOSINOPHIL / ABSOLUTE LYMPHOCYTE / ABSOLUTE MONOCYTE / ABSOLUTE SEGMENTED NEUTROPHIL / BASOPHIL / EOSINOPHIL / ERYTHROCYTE COUNT / HEMATOCRIT / HEMOGLOBIN / LEUKOCYTE COUNT / LYMPHOCYTE / MEAN CORPUSCULAR HEMOGLOBIN / MEAN CORPUSCULAR HEMOGLOBIN CONCENTRATION / MEAN CORPUSCULAR VOLUME / MONOCYTE / NEUTROPHIL / NUCLEATED RED BLOOD CELLS / PLATELET COUNT: tissue Blood; for ALANINE AMINOTRANSFERASE / ALBUMIN / ALKALINE PHOSPHATASE / ASPARTATE AMINOTRANSFERASE / BLOOD UREA NITROGEN / CARBON DIOXIDE / CHLORIDE / CHOLESTEROL / CREATINE PHOSPHOKINASE / CREATININE / GLUCOSE / LACTATE DEHYDROGENASE / LIPASE / PHOSPHORUS / POTASSIUM / SODIUM / TOTAL BILIRUBIN / TOTAL PROTEIN / URIC ACID: tissue Plasma

`O=c1c(-c2ccc(O)cc2)coc2cc(O)cc(O)c12` [GENISTEIN] was tested, and the “ABSOLUTE BASOPHIL” value (72 h, time 3 day) was 0 CELLS/uL, the “ABSOLUTE EOSINOPHIL” value (72 h, time 3 day) was 14 CELLS/uL and the “ABSOLUTE LYMPHOCYTE” value (72 h, time 3 day) was 11144.67 CELLS/uL. For the same molecule, the “ABSOLUTE MONOCYTE” value (72 h, time 3 day) was 22.5 CELLS/uL, the “ABSOLUTE SEGMENTED NEUTROPHIL” value (72 h, time 3 day) was 535.5 CELLS/uL and the BASOPHIL (72 h, time 3 day) was 0%. The EOSINOPHIL (72 h, time 3 day) was 0.17%, the “ERYTHROCYTE COUNT” value (72 h, time 3 day) was 5.08 x10E6/uL and the HEMATOCRIT (72 h, time 3 day) was 32.32%. For the same molecule, the HEMOGLOBIN (72 h, time 3 day) was 12.87 G/DL, the “LEUKOCYTE COUNT” value (72 h, time 3 day) was 11.72 x10E3/uL and the LYMPHOCYTE (72 h, time 3 day) was 94.67%. For the same molecule, the “MEAN CORPUSCULAR HEMOGLOBIN” value (72 h, time 3 day) was 25.37 pg, the “MEAN CORPUSCULAR HEMOGLOBIN CONCENTRATION” value (72 h, time 3 day) was 39.85 G/DL and the “MEAN CORPUSCULAR VOLUME” value (72 h, time 3 day) was 63.58 fL. The MONOCYTE (72 h, time 3 day) was 0.17%, the NEUTROPHIL (72 h, time 3 day) was 5% and the “NUCLEATED RED BLOOD CELLS” value (72 h, time 3 day) was 0 /100WBC. The “PLATELET COUNT” value (72 h, time 3 day) was 1084 x10E3/uL, the “ALANINE AMINOTRANSFERASE” value (72 h, time 3 day) was 67.5 u/L and the ALBUMIN (72 h, time 3 day) was 4.02 G/DL. The “ALKALINE PHOSPHATASE” value (72 h, time 3 day) was 374.17 u/L, the “ASPARTATE AMINOTRANSFERASE” value (72 h, time 3 day) was 83.5 u/L and the “BLOOD UREA NITROGEN” value (72 h, time 3 day) was 14.5 mg/dL. The “CARBON DIOXIDE” value (72 h, time 3 day) was 30 mmol/L, the CHLORIDE (72 h, time 3 day) was 100.5 MEQ/L and the CHOLESTEROL (72 h, time 3 day) was 71.33 mg/dL. For the same molecule, the “CREATINE PHOSPHOKINASE” value (72 h, time 3 day) was 268.33 u/L, the CREATININE (72 h, time 3 day) was 0.16 mg/dL and the GLUCOSE (72 h, time 3 day) was 170.5 mg/dL. For the same molecule, the “LACTATE DEHYDROGENASE” value (72 h, time 3 day) was 81.17 u/L, the LIPASE (72 h, time 3 day) was 16.67 u/L and the PHOSPHORUS (72 h, time 3 day) was 10.07 mg/dL. For the same molecule, the POTASSIUM (72 h, time 3 day) was 5.03 MEQ/L, the SODIUM (72 h, time 3 day) was 142.92 MEQ/L and the “TOTAL BILIRUBIN” value (72 h, time 3 day) was 0.17 mg/dL. The “TOTAL PROTEIN” value (72 h, time 3 day) was 5.63 G/DL, the “URIC ACID” value (72 h, time 3 day) was 0.5 mg/dL and the “ABSOLUTE BASOPHIL” value (120 h, time 5 day) was 0 CELLS/uL. For the same molecule, the “ABSOLUTE EOSINOPHIL” value (120 h, time 5 day) was 37.5 CELLS/uL, the “ABSOLUTE LYMPHOCYTE” value (120 h, time 5 day) was 8049.5 CELLS/uL and the “ABSOLUTE MONOCYTE” value (120 h, time 5 day) was 82.83 CELLS/uL. The “ABSOLUTE SEGMENTED NEUTROPHIL” value (120 h, time 5 day) was 646.83 CELLS/uL, the BASOPHIL (120 h, time 5 day) was 0% and the EOSINOPHIL (120 h, time 5 day) was 0.5%. The “ERYTHROCYTE COUNT” value (120 h, time 5 day) was 5.36 x10E6/uL, the HEMATOCRIT (120 h, time 5 day) was 33.9% and the HEMOGLOBIN (120 h, time 5 day) was 13.02 G/DL. The “LEUKOCYTE COUNT” value (120 h, time 5 day) was 8.82 x10E3/uL, the LYMPHOCYTE (120 h, time 5 day) was 90.17% and the “MEAN CORPUSCULAR HEMOGLOBIN” value (120 h, time 5 day) was 24.32 pg. The “MEAN CORPUSCULAR HEMOGLOBIN CONCENTRATION” value (120 h, time 5 day) was 38.42 G/DL, the “MEAN CORPUSCULAR VOLUME” value (120 h, time 5 day) was 63.32 fL and the MONOCYTE (120 h, time 5 day) was 1.17%. For the same molecule, the NEUTROPHIL (120 h, time 5 day) was 8.17%, the “NUCLEATED RED BLOOD CELLS” value (120 h, time 5 day) was 0.17 /100WBC and the “PLATELET COUNT” value (120 h, time 5 day) was 1231.5 x10E3/uL. For the same molecule, the “ALANINE AMINOTRANSFERASE” value (120 h, time 5 day) was 62 u/L, the ALBUMIN (120 h, time 5 day) was 3.97 G/DL and the “ALKALINE PHOSPHATASE” value (120 h, time 5 day) was 303.67 u/L. The “ASPARTATE AMINOTRANSFERASE” value (120 h, time 5 day) was 84.5 u/L, the “BLOOD UREA NITROGEN” value (120 h, time 5 day) was 14.83 mg/dL and the “CARBON DIOXIDE” value (120 h, time 5 day) was 31.83 mmol/L. For the same molecule, the CHLORIDE (120 h, time 5 day) was 97 MEQ/L, the CHOLESTEROL (120 h, time 5 day) was 68.83 mg/dL and the “CREATINE PHOSPHOKINASE” value (120 h, time 5 day) was 411.33 u/L. The CREATININE (120 h, time 5 day) was 0.16 mg/dL, the GLUCOSE (120 h, time 5 day) was 170.17 mg/dL and the “LACTATE DEHYDROGENASE” value (120 h, time 5 day) was 88.5 u/L. It also gave an LIPASE (120 h, time 5 day) of 9.5 u/L, a PHOSPHORUS (120 h, time 5 day) of 9.98 mg/dL and a POTASSIUM (120 h, time 5 day) of 5.72 MEQ/L. For the same molecule, the SODIUM (120 h, time 5 day) was 141.62 MEQ/L, the “TOTAL BILIRUBIN” value (120 h, time 5 day) was 0.1 mg/dL and the “TOTAL PROTEIN” value (120 h, time 5 day) was 5.67 G/DL. For the same molecule, the “URIC ACID” value (120 h, time 5 day) was 0.52 mg/dL.
